Patent publication US20220389009A1, “SUBSTITUTED 1,6-NAPHTHYRIDINE INHIBITORS OF CDK5” (Goldfinch Bio, Inc., priority 2019, published 2022)

Legend:
CDK2/CycA2 = CDK2/CycA2 (Homo sapiens, UniProt P24941); assay: CDK2 mobility shift assay (enzymatic activity of CDK2/CycA2); type: biochemical; conditions: 1.25 nM CDK2/CycA2, 37 μM ATP, FL Peptide 18, 120 min at room temperature; read-out: CDK2 IC50
Procedure, shortened: (§1)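 Carna CDK5/p25 (0.154 nM) or CDK2/CycA2 (1.25 nM) was preincubated 30 min with compound, ATP ([…] for CDK5; 37 μM for CDK2) and 10 mM MgCl2 in HEPES pH 7.5. The reaction was started with 1.5 μM FL peptide (29 for CDK5, 18 for CDK2) and run 60 min (CDK5) or 120 min (CDK2) at room temperature. Product was read by mobility shift, with IC50 from a 4-parameter fit.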

CDK5/p25 = CDK5/p25 (Homo sapiens, UniProt Q00535); assay: CDK5 mobility shift assay (enzymatic activity of CDK5/p25); type: biochemical; conditions: for IC50: 0.154 nM CDK5/p25, FL peptide 29, 60 min at room temperature, read-out: CDK5 IC50; for CDK5/CDK2 specificity: fold more active against CDK5 than CDK2
Chain of CDK5/p25 (Q00535 whole entry): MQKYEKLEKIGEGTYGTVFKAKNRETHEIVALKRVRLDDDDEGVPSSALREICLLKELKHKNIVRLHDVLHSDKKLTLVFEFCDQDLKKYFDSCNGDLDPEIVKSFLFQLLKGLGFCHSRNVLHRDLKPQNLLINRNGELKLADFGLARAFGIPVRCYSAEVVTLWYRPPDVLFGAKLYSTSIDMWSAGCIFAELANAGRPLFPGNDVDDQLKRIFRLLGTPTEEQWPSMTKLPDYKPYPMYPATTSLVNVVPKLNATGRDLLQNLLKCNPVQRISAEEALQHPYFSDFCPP
Chain of CDK5/p25 (Q15078 99-307 partner limits assumed): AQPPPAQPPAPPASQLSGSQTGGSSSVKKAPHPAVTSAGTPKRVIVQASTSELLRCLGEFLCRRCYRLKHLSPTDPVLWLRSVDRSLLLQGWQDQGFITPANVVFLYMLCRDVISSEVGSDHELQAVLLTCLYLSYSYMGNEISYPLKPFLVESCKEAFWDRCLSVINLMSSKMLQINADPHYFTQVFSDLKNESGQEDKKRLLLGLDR
Procedure, shortened: as §1

Structure (SMILES) | IC50 (CDK2/CycA2) [µM] | IC50 (CDK5/p25) [µM] | CDK5/CDK2 specificity (CDK5/p25)
Cc1cc(C(=O)NC(C)C)ccc1Nc1cc2nc(S(=O)(=O)C3CCN(C)CC3)ccc2cn1 [Compound 265] | > 1 | 0.01 to 0.1 | +++ (greater than 100-fold more active against CDK5 than CDK2)
CN1CCC(S(=O)(=O)c2ccc3cnc(Nc4ccccc4N4CCOCC4)cc3n2)CC1 [Compound 266] | > 1 | > 1 | ++ (greater than 10-fold and less than or equal to 100-fold more active against CDK5 than CDK2)
COc1cncc(Nc2cc3nc(S(=O)(=O)C4CCN(C)CC4)ccc3cn2)c1 [Compound 267] | 0.1 to 1 | 0.01 to 0.1 | ++ (greater than 10-fold and less than or equal to 100-fold more active against CDK5 than CDK2)
CNC(=O)c1ccc(Nc2cc3nc(S(=O)(=O)C4CCN(C)CC4)ccc3cn2)cc1 [Compound 268] | 0.1 to 1 | < 0.01 | ++ (greater than 10-fold and less than or equal to 100-fold more active against CDK5 than CDK2)
CN1CCC(S(=O)(=O)c2ccc3cnc(Nc4ccon4)cc3n2)CC1 [Compound 269] | 0.1 to 1 | 0.01 to 0.1 | + (10-fold or less more active against CDK5 than CDK2)
CN1CCC(S(=O)(=O)c2ccc3cnc(Nc4ccc(N5CCN(C)CC5)cc4)cc3n2)CC1 [Compound 270] | 0.1 to 1 | < 0.01 | ++ (greater than 10-fold and less than or equal to 100-fold more active against CDK5 than CDK2)
CN1CCC(S(=O)(=O)c2ccc3cnc(Nc4ccc(S(C)(=O)=O)cc4)cc3n2)CC1 [Compound 271] | 0.01 to 0.1 | < 0.01 | + (10-fold or less more active against CDK5 than CDK2)
CN1CCC(S(=O)(=O)c2ccc3cnc(Nc4ccc5oc(=O)ccc5c4)cc3n2)CC1 [Compound 272] | 0.1 to 1 | < 0.01 | ++ (greater than 10-fold and less than or equal to 100-fold more active against CDK5 than CDK2)
CN1CCC(S(=O)(=O)c2ccc3cnc(Nc4cccc(N5CCOCC5)c4)cc3n2)CC1 [Compound 273] | 0.1 to 1 | < 0.01 | +++ (greater than 100-fold more active against CDK5 than CDK2)
CN1CCC(S(=O)(=O)c2ccc3cnc(Nc4cccc(C5CC5)c4)cc3n2)CC1 [Compound 274] | 0.01 to 0.1 | < 0.01 | +++ (greater than 100-fold more active against CDK5 than CDK2)
CN1CCC(S(=O)(=O)c2ccc3cnc(Nc4ccc5c(c4)C(=O)N(C)C5)cc3n2)CC1 [Compound 275] | 0.1 to 1 | 0.01 to 0.1 | ++ (greater than 10-fold and less than or equal to 100-fold more active against CDK5 than CDK2)
CN1CCC(S(=O)(=O)c2ccc3cnc(Nc4cccc(CN5CCOCC5)c4)cc3n2)CC1 [Compound 276] | 0.1 to 1 | < 0.01 | ++ (greater than 10-fold and less than or equal to 100-fold more active against CDK5 than CDK2)
CN1CCC(S(=O)(=O)c2ccc3cnc(Nc4cccc(N5CCN(C)CC5)c4)cc3n2)CC1 [Compound 277] | 0.1 to 1 | < 0.01 | ++ (greater than 10-fold and less than or equal to 100-fold more active against CDK5 than CDK2)
CN1CCC(S(=O)(=O)c2ccc3cnc(Nc4ccc5c(c4)C(=O)NCC5)cc3n2)CC1 [Compound 278] | 0.1 to 1 | < 0.01 | ++ (greater than 10-fold and less than or equal to 100-fold more active against CDK5 than CDK2)
CN1CCC(S(=O)(=O)c2ccc3cnc(Nc4ccc(-n5cncn5)cc4)cc3n2)CC1 [Compound 279] | 0.1 to 1 | < 0.01 | ++ (greater than 10-fold and less than or equal to 100-fold more active against CDK5 than CDK2)
CN(C)Cc1cccc(Nc2cc3nc(S(=O)(=O)C4CCN(C)CC4)ccc3cn2)c1 [Compound 280] | 0.1 to 1 | 0.01 to 0.1 | + (10-fold or less more active against CDK5 than CDK2)
CN1CCC(S(=O)(=O)c2ccc3cnc(Nc4cccc(N5CCCC5=O)c4)cc3n2)CC1 [Compound 281] | 0.1 to 1 | < 0.01 | ++ (greater than 10-fold and less than or equal to 100-fold more active against CDK5 than CDK2)
CN1CCC(S(=O)(=O)c2ccc3cnc(Nc4ccc5c(c4)COC5)cc3n2)CC1 [Compound 282] | 0.01 to 0.1 | < 0.01 | ++ (greater than 10-fold and less than or equal to 100-fold more active against CDK5 than CDK2)

Structure (SMILES) | IC50 (CDK2/CycA2) [µM] | IC50 (CDK5/p25) [µM] | CDK5/CDK2 specificity (CDK5/p25)
CN1CCC(S(=O)(=O)c2ccc3cnc(Nc4cccc(N5CCOC5=O)c4)cc3n2)CC1 [Compound 284] | 0.01 to 0.1 | < 0.01 | ++ (greater than 10-fold and less than or equal to 100-fold more active against CDK5 than CDK2)
CN1CCC(S(=O)(=O)c2ccc3cnc(Nc4cccc(N5CCNC5=O)c4)cc3n2)CC1 [Compound 285] | 0.01 to 0.1 | < 0.01 | ++ (greater than 10-fold and less than or equal to 100-fold more active against CDK5 than CDK2)
CN1CCC(S(=O)(=O)c2ccc3cnc(Nc4cnc5ccc(Cl)nn45)cc3n2)CC1 [Compound 286] | > 1 | > 1 | + (10-fold or less more active against CDK5 than CDK2)
OCc1ccn(-c2ccc(Nc3cc4nc(N(Cc5cn[nH]c5)C5CCNCC5)ccc4cn3)c(F)c2)n1 [Compound 287, [1-[3-fluoro-4-([2-[piperidin-4-yl(1H-pyrazol-4-ylmethyl)amino]-1,6-naphthyridin-7-yl]amino)phenyl]pyrazol-3-yl]methanol] | > 1 | 0.01 to 0.1 | ++ (greater than 10-fold and less than or equal to 100-fold more active against CDK5 than CDK2)
COC(=O)c1cnn(-c2ccc(Nc3cc4nc(S(=O)(=O)C5CCN(C)CC5)ccc4cn3)c(F)c2)c1 [Compound 288] | > 1 | < 0.01 | +++ (greater than 100-fold more active against CDK5 than CDK2)
COC(=O)c1ccn(-c2ccc(Nc3cc4nc(S(=O)(=O)C5CCN(C)CC5)ccc4cn3)c(F)c2)n1 [Compound 290] | 0.1 to 1 | < 0.01 | +++ (greater than 100-fold more active against CDK5 than CDK2)
CN1CCC(C(F)(F)c2ccc3cnc(Nc4ccc(-n5cccn5)cc4F)cc3n2)CC1 [Compound 291, 2-[difluoro(1-methylpiperidin-4-yl)methyl]-N-[2-fluoro-4-(pyrazol-1-yl)phenyl]-1,6-naphthyridin-7-amine] | 0.01 to 0.1 | < 0.01 | ++ (greater than 10-fold and less than or equal to 100-fold more active against CDK5 than CDK2)
CN1CCC(C(O)c2ccc3cnc(Nc4ccc(-n5ccc(C(=O)O)n5)cc4F)cc3n2)CC1 (stereo not drawn) [Compound 292, 1-[3-fluoro-4-([2-[hydroxy(1-methylpiperidin-4-yl)methyl]-1,6-naphthyridin-7-yl]amino)phenyl]pyrazole-3-carboxylic acid] | 0.1 to 1 | < 0.01 | ++ (greater than 10-fold and less than or equal to 100-fold more active against CDK5 than CDK2)
CN1CCC(S(=O)(=O)c2ccc3cnc(Nc4ccc(-c5cncnc5)cc4F)cc3n2)CC1 [Compound 293] | 0.1 to 1 | < 0.01 | +++ (greater than 100-fold more active against CDK5 than CDK2)
Cc1ccc(Nc2cc3nc(S(=O)(=O)C4CCN(C)CC4)ccc3cn2)c(F)c1 [Compound 294] | 0.1 to 1 | < 0.01 | +++ (greater than 100-fold more active against CDK5 than CDK2)
CN1CCC(S(=O)(=O)c2ccc3cnc(Nc4ccc(C(C)(C)C)cc4)cc3n2)CC1 [Compound 295] | 0.01 to 0.1 | < 0.01 | ++ (greater than 10-fold and less than or equal to 100-fold more active against CDK5 than CDK2)
CN1CCC(S(=O)(=O)c2ccc3cnc(Nc4ccc(N5CCS(=O)(=O)CC5)cc4)cc3n2)CC1 [Compound 296] | 0.01 to 0.1 | < 0.01 | ++ (greater than 10-fold and less than or equal to 100-fold more active against CDK5 than CDK2)
Cc1ccccc1Nc1cc2nc(S(=O)(=O)C3CCN(C)CC3)ccc2cn1 [Compound 297] | 0.1 to 1 | < 0.01 | +++ (greater than 100-fold more active against CDK5 than CDK2)
CC(C)c1ccc(Nc2cc3nc(S(=O)(=O)C4CCN(C)CC4)ccc3cn2)cc1 [Compound 298] | 0.01 to 0.1 | < 0.01 | +++ (greater than 100-fold more active against CDK5 than CDK2)
CN1CCC(S(=O)(=O)c2ccc3cnc(Nc4ccccc4F)cc3n2)CC1 [Compound 299] | 0.1 to 1 | < 0.01 | ++ (greater than 10-fold and less than or equal to 100-fold more active against CDK5 than CDK2)
CN1CCC(S(=O)(=O)c2ccc3cnc(Nc4ccc(N5CCCC5)cc4)cc3n2)CC1 [Compound 301] | 0.1 to 1 | < 0.01 | +++ (greater than 100-fold more active against CDK5 than CDK2)
CN1CCC(S(=O)(=O)c2ccc3cnc(Nc4ccc(N5CCC(O)CC5)cc4)cc3n2)CC1 [Compound 304] | 0.1 to 1 | < 0.01 | ++ (greater than 10-fold and less than or equal to 100-fold more active against CDK5 than CDK2)
